Values after ≈ are worked out from the molar mass of the structure shown. “Also recorded” adds a separate entry of the source. Where two headings read alike, the source gives them in different places.
How the values were obtained:
[1] = Metabolic stability in mouse liver microsomes; assay type: in vitro ADME; settings: mouse, liver microsomes; for half-life at 2 μM: Table 4, read-out: MLM t1/2
Description: (§1) The samples were collected at specific time-points 0, 30, and 60 min in duplicate. The reactions were terminated by adding an equivalent volume of ice-cold methanol and vortexed. […] Three μL of the supernatant was analyzed by UHPLC-Q Exactive Orbitrap MS (Thermo Fisher Scientific, USA) equipped with 50 mm×4.6 mm column (XDB C-18, Agilent Technologies, USA). The column temperature was maintained at 40° C. The flow rate was at 0.3 mL/min with a 30% mobile phase (acetonitrile containing 0.1% formic acid). Q Exactive MS was operated in positive mode with electrospray ionization. Ultra-pure nitrogen was applied as the sheath (45 arbitrary unit), auxiliary (10 arbitrary unit), sweep (1.0 arbitrary unit) and the collision gas. […] MS data were acquired from 80 to 1,200 Da in profile mode.

[2] = target: SARS-COV-2 M^pro (authentic N- and C-termini) (Severe acute respiratory syndrome coronavirus 2, UniProt P0DTD1); test: biochemical; assay type: biochemical
Human Cathepsin B = target: T1, Human Cathepsin B (Homo sapiens, UniProt P07858); test: Cathepsin B assay; assay type: biochemical
T1 construct: purchased BPS Bioscience 79590
Description: (§2) A kit from BPS Bioscience (#79590) was used with adjustments to the manufacturer's protocol as follows: The activated enzyme was diluted 250-fold just before use, and the reaction was run at RT in black 96 half-area plates in a total reaction volume of 50 uL containing 0.01% Tween-20. Instead of measuring endpoints at 60 min the increase in fluorescence (Ex 360 nm, Em 460 nm) per second (RFU/s) was obtained from linear progress curves over 10 min. Fractional activities were calculated from reactions with no inhibitors. E-64 was used as a positive control.

[3] = Metabolic stability in human liver microsomes; assay type: in vitro ADME; settings: human, liver microsomes; for half-life at 2 μM: Table 4, read-out: HLM t1/2
Description: as §1

[4] = target: SARS-CoV-2 main protease (M^pro) (Severe acute respiratory syndrome coronavirus 2, UniProt P0DTD1); test: Protein thermal shift stability assay (SYPRO Orange); assay type: binding
HOVPro-Gi.1 = target: T2, HOVPro-Gi.1 (Norovirus, UniProt Q83883); test: Thermal shift, HOVPro-Gi.1; assay type: binding
T2 construct: HOVPro-Gi.1
T2 sequence (Q83883 1101-1281): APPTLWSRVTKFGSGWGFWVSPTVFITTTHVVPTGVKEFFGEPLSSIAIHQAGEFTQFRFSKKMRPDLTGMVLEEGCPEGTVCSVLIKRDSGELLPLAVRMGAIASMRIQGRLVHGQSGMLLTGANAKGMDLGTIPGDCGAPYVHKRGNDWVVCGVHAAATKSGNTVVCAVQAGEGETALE

human thrombin = target: T3, human thrombin (Homo sapiens, UniProt P00734); test: Thrombin fluorescence assay; assay type: biochemical
T3 construct: purchased Sigma-Aldrich MAK243

[5] = Apparent solubility in PBS buffer; settings: for solubility: PBS buffer with 2% DMSO, aqueous buffer, kinetic from dmso stock
SARS-COV-2 M^pro-His6 = SARS-COV-2 M^pro-His6 (Severe acute respiratory syndrome coronavirus 2, UniProt P0DTD1); test: biochemical; assay type: biochemical
HOVPro-Gii.4 = test: Thermal shift, HOVPro-Gii.4; assay type: binding
[6] = 293T relative cell viability; settings: human, 293T cells
[7] = target: T4, matrix metallopeptidase 1 (MMP-1) (Homo sapiens, UniProt P03956); test: MMP-1 assay; assay type: biochemical
T4 construct: purchased Biovision K794-100
T4 sequence (P03956 100-469): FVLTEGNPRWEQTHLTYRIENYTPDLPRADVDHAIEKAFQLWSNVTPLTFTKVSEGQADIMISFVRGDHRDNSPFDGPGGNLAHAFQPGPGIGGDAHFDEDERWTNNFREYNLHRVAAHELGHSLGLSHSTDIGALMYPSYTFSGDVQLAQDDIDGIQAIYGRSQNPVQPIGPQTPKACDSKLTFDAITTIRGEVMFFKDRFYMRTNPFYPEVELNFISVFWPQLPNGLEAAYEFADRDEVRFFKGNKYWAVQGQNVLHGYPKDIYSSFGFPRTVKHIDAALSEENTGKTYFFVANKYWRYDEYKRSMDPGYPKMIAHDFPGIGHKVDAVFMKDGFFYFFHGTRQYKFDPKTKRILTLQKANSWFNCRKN
Description: A kit from Biovision (#K794-100) was used with adjustments to the manufacturer's protocol as follows: The enzyme was reconstituted according to protocol and then diluted 5-fold with assay buffer just before use. The unknown fluorogenic substrate was further diluted 10-fold with the provided assay buffer. The reaction was run at 37 C in black 96 half-area plates in a total reaction volume of 50 μL containing 0.01% Tween-20. The increase in fluorescence (Ex 490 nm, Em 520 nm) per second (RFU/s) was obtained from linear progress curves over 10 min. Fractional activities were calculated from reactions with no inhibitors. GM 6001 was used as a positive control.

renin = target: T5, renin (Homo sapiens, UniProt P00797); test: Renin assay; assay type: biochemical
T5 construct: purchased BPS Bioscience 80211
T5 sequence (P00797 67-406): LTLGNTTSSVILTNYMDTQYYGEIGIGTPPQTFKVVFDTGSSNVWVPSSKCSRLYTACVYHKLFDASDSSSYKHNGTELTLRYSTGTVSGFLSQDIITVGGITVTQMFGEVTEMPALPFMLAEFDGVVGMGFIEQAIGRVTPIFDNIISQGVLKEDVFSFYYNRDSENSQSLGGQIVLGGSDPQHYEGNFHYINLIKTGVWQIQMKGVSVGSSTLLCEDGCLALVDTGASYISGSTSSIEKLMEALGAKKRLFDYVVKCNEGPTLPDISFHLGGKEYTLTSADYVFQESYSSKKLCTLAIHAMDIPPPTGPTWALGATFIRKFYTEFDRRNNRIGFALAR
Description: as §2, with “(#80211)” for “(#79590)”, “The” for “The activated enzyme was diluted 250-fold just before use, and the”, “30” for “60”, “490” for “360”, “520” for “460”, “Aliskiren” for “E-64”

HepG2 cells = test: HepG2 cytotoxicity assay (XTT); settings: Homo sapiens, HepG2, 24 h, read-out: HepG2 cell viability IC50
Pharmacokinetics in mice = assay type: in vivo; settings: 50 mg/kg intraperitoneal, plasma
Description: The whole blood samples were span at 2,000 rcf for 5 min for the separation of plasma. […] The concentration of these compounds in plasma were quantified using a calibration curve.

| Compound | microsomal CLint at 2 μM [1] | half-life at 2 μM [1] | Human Cathepsin B, Fractional Remaining Activity (Human Cathepsin B) | microsomal CLint at 2 μM [3] | half-life at 2 μM [3] | ΔTm of Mpro at 50 μM compound conc. ([4]; 50 μM compound, […]) | ΔTm of HOVPro-Gi.1 at 50 μM compound conc. (HOVPro-Gi.1) | Thrombin inhibition (human thrombin; fluorescence assay) | solubility [5] | ΔTm of HOVPro-Gii.4 at 50 μM compound conc. (HOVPro-Gii.4) | cytotoxicity at 3 day, 10 μM [6] | thrombin inhibition (in words) (human thrombin) | MMP-1 inhibition (in words) [7] | cathepsin B inhibition (in words) (Human Cathepsin B) | renin inhibition (in words) (renin) | CL/F (Pharmacokinetics in mice) | thrombin inhibition (in words) (human thrombin; fluorescence assay) | AUC0-t (Pharmacokinetics in mice) | Tmax (Pharmacokinetics in mice) | also measured |
| --- | --- | --- | --- | --- | --- | --- | --- | --- | --- | --- | --- | --- | --- | --- | --- | --- | --- | --- | --- | --- |
| CCC[C@H](NC(=O)c1cccc2nc(-c3cncc4ccccc34)n([C@H]3C[C@H](C(=O)NC)C3)c12)c1ccc(OC(F)F)cc1 [CDD-1780] | 39.5 µL/min/mg | 35.1 min | 0.95 | 76.1 µL/min/mg | 18 min | 9.19 °C | −0.18 °C | None | 41.8 µM (≈ 25 µg/mL) | −1.23 °C | 6% | – | – | – | – | – | – | – | – | Ki ([2]; Table 3, column b (footnote not given), read-out: Kiapp (nM)^b): 15.7 ± 1.6 nM; Ki (SARS-COV-2 M^pro-His6; Table 3, column a (footnote not given), read-out: Kiapp (nM)^a): 13.7 ± 1.5 nM |
| CNCc1cc(-c2cccc3[nH]ncc23)cc(OC)c1OCC(=O)N(C)C [CDD-1777] | – | – | – | – | – | 1.00 °C | – | – | 195 µM (≈ 71.7 µg/mL) | – | 4% | – | – | – | – | – | – | – | – | Ki,app [2]: Inactive; M^pro Ki [2]: Inactive; M^pro-His Ki (SARS-COV-2 M^pro-His6): Inactive |
| COc1cc(-c2cccc3[nH]ncc23)cc(C=O)c1OCC(=O)N1CCC(Oc2cccc(C(=O)N(C)C)c2)C1 (centres unmarked) [CDD-1714, 3-((1-(2-(2-formyl-4-(1H-indazol-4-yl)-6-methoxyphenoxy)acetyl)pyrrolidin-3-yl)oxy)-N,N-dimethylbenzamide] | 130 µL/min/mg | 10.7 min | 0.92 | 132 µL/min/mg | 10.5 min | – | −0.11 °C | – | 54.4 µM (≈ 29.5 µg/mL) | −0.41 °C | 21% | No inhibition | – | – | – | – | – | – | – | Ki ([2]; Morrison equation, read-out: apparent Ki against M^pro): 24.4 nM; stabilization of M^pro in thermal shift assay (in words) [4]: stabilized; also recorded: concentration-dependent stabilization; ΔTm of Mpro at 50 μM compound conc. [4]: 2.93 °C; Thrombin inhibition (human thrombin): None; Ki (SARS-COV-2 M^pro-His6; 25 nM enzyme, 15 μM fluorescent peptide, Morrison equation, Inactive = less than 50% inhibition at 25 μM compound, read-out: M^pro-His Ki): 20.2 ± 3 nM |
| CNC(=O)[C@H]1C[C@H](n2c(-c3cncc4ccccc34)nc3cccc(C(=O)NC(C)c4ccc5ccccc5c4)c32)C1 (some centres unmarked) [CDD-1819] | – | – | – | – | – | – | – | – | – | – | – | – | negative | negative | negative | 7.26 ± 1.81 mg/(hr · μmol/L)/kg | negative | – | – | IC50 (HepG2 cells): > 100000 nM; MRT last (Pharmacokinetics in mice; mouse, ip, read-out: MRT0-t): 78.6 ± 7.2 min; MRT inf (Pharmacokinetics in mice; mouse, ip, read-out: MRT0-∞): 85.2 ± 9.6 min; Tmax (Pharmacokinetics in mice; mouse, ip, read-out: Tmax): 19.8 ± 8.4 min |
| CNC(=O)CCCn1c(-c2cncc3ccccc23)nc2cccc(C(=O)N[C@@H](C)c3ccc4ccccc4c3)c21 [CDD-1845] | – | – | – | – | – | – | – | – | – | – | – | negative | negative | negative | negative | 4.02 ± 1.98 mg/(hr · μmol/L)/kg | – | 14.87 ± 7.79 µM·h | 19.8 ± 8.4 min | AUC0-∞ (Pharmacokinetics in mice): 14.93 ± 7.85 µM·h; Cmax (Pharmacokinetics in mice): 8.93 ± 4.55 µM; MRT0-t (Pharmacokinetics in mice): 73.2 ± 1.8 min; MRT0-∞ (Pharmacokinetics in mice): 75 ± 1.2 min; T1/2 (Pharmacokinetics in mice): 68.4 ± 19.2 min |
| CCCC(NC(=O)c1cccc2nc(-c3cncc4ccccc34)n([C@H]3C[C@H](C(=O)NC)C3)c12)c1ccc(C(F)(F)F)cc1 (some centres unmarked) [CDD-1733] | – | – | 0.91 | – | – | – | – | None | – | – | – | – | negative | negative | negative | 7.73 ± 2.75 mg/(hr · μmol/L)/kg | No inhibition; also recorded: negative | 7.80 ± 3.22 µM·h | 60 min | ΔTm of Mpro at 50 μM compound conc. ([4]; 50 μM compound, […], 50 µM): 7.75 °C; ΔTm of HOVPro-Gi.1 at 50 μM compound conc. (HOVPro-Gi.1; 50 µM): −0.74 °C; Measured apparent solubility in PBS buffer (2% DMSO) ([5]; PBS buffer, 2% DMSO): 30.3 µM; ΔTm of HOVPro-Gii.4 at 50 μM compound conc. (HOVPro-Gii.4; 50 µM): −1.2 °C |

Reference: patent US20250276955A1, “CORONAVIRUS MAIN PROTEASE INHIBITORS AND METHODS USING SAME” (Baylor College of Medicine, priority 2021, published 2025)
